EP4800013A1, “PARG INHIBITOR” (Shanghai Qilu Pharmaceutical Research and Development …, priority 2023, dated 2025)
Read-outs that look alike come from different tables or passages of the source.

How the values were obtained:
KURAMOCHI cells = assay: Inhibition of proliferation of KURAMOCHI cells (CellTiter-Glo, intracellular ATP); assay type: cell-based; details: 168 h, incubated for 7 days, read-out: IC50 against KURAMOCHI cells
Summary of the method: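 KURAMOCHI cells seeded at 4000/well, incubated overnight, then treated with 9-point 1:4 compound series from 10 µM (0.5% DMSO) for 7 days at 37°C, 5% CO2. Viability read by CellTiter-Glo luminescence; inhibition normalised to medium-only (100%) and DMSO (0%) controls, IC50 from variable-slope four-parameter fit.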

[1] = system: KURAMOCHI ovarian cancer xenograft model; assay: In vivo efficacy study in KURAMOCHI ovarian cancer xenograft model; details: for TGI (%) / Tumor volume (mm^3): PO; for Tumor volume (mm^3): Mean ± SEM
Description: (§1) NOD SCID mice, female, SPF grade, purchased from Beijing Anikeepter Biotech Co., Ltd.
KURAMOCHI cells, purchased from JCRB.
(§2) The culture medium was changed weekly. […] Tumor cells in the logarithmic growth phase were used for in vivo implantation.
(§3) A total of 35 mice were inoculated: 35 mice for the efficacy study; 15 mice for the PK/PD study; 10 mice remaining after grouping. When the tumor volume reached approximately 150 to 200 mm^3, the mice were grouped for dosing to initiate the efficacy study. Specifically, they were divided into 7 groups, with 5 mice per group. The remaining animals were grouped for dosing when the tumor volume reached approximately 250 mm^3.
(§4) b. Treatment was initiated after grouping, with a dosing volume of 10 µL/g body weight via oral administration (PO). Animals were weighed daily before dosing and administered once daily for 21 consecutive days. Tumor diameters were measured twice weekly. c. Tumor volume (TV) was measured twice weekly to monitor changes in tumor size and growth rate. Tumor volume was calculated as: V = 1/2 × a × b^2, where a and b represent tumor length and tumor width, respectively. The growth inhibitory effect of compounds on tumor tissue was evaluated using tumor growth inhibition (TGI (%)). […] Data for both the treatment group and the negative control group were collected on the same day. d. The mice were weighed during tumor measurements. The relationship between changes in body weight and time of treatment was recorded. The survival and health status of the mice, including general conditions such as activity level and food intake during the dosing period, were also observed. […] Treatment was resumed when the body weight recovered to within 10% of baseline. […] Nutritional gel supplementation was provided during treatment discontinuation. e. At the study endpoint, the mice were euthanized.

PARG = molecular target: T1, PARG (Homo sapiens, UniProt Q86W56); assay: Enzymatic inhibitory activity against PARG, HTRF assay; assay type: biochemical; details: HTRF; PARylated PARP1 protein as substrate; 60 minutes at room temperature; read-out: IC50 against PARG enzyme
T1 construct: made in house
T1 sequence (Q86W56 whole entry): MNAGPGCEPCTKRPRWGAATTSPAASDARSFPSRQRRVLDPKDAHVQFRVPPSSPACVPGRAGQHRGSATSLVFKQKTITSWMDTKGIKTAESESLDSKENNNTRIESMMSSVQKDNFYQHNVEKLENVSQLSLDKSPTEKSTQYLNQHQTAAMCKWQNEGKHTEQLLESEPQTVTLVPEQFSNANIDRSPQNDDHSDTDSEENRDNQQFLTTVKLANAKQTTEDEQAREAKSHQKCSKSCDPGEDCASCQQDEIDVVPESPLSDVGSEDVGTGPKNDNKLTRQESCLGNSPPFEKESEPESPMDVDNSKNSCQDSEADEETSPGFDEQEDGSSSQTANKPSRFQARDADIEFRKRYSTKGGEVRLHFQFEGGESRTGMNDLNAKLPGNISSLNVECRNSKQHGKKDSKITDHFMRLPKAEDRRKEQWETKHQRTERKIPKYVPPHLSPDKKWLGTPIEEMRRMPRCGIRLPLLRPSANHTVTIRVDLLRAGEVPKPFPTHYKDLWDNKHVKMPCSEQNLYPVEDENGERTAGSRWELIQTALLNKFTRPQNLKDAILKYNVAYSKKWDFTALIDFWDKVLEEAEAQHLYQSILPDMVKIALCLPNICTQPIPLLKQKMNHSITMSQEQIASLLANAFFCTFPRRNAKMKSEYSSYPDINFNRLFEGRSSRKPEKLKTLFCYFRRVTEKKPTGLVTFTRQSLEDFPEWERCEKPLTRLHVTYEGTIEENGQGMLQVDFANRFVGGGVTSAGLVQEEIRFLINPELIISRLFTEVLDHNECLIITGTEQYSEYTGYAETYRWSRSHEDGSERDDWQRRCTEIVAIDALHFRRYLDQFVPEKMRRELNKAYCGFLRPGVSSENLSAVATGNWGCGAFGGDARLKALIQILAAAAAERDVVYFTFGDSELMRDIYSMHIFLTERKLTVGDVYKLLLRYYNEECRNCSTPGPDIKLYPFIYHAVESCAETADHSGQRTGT
Summary of the method: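 Purified PARG pre-incubated with compounds (top 10 µM, 3- to 5-fold dilutions, duplicates) 15 min at room temperature, then PARylated PARP1 substrate added for 60 min in Tris pH 7.4 buffer with DTT, EDTA/EGTA, KCl. HTRF (His-Tb/SA-XL665) read-out; IC50 by four-parameter logistic fit, normalised to DMSO and control-inhibitor wells.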

[2] = system: KURAMOCHI ovarian cancer xenograft model; details: mouse, in vivo, po
Description: as §1
KURAMOCHI cells, purchased from JCRB.
as §2, §3, §4

[3] = Pharmacokinetic evaluation in BALB/c nude mice (PO); assay type: in vivo; details: mouse, in vivo, 30 mg/kg
Protocol: Using mice as test animals, the compounds of the present disclosure were administered via intravenous bolus and oral injection. Plasma samples were collected at specific time points. Compound concentrations in plasma were determined by LC-MS/MS, and PK parameters were calculated to characterize the pharmacokinetic behavior of the compounds of the present disclosure in plasma.
BALB/c nude mice, female, supplied by Jiangsu GemPharmatech Co., Ltd.
Dosing regimen for BALB/c nude mice: The PO (oral) experimental group consisted of 3 mice, which were administered at a dose of 30 mg/kg and a volume of 10 mL/kg. The dosing vehicle was 5% (v/v) DMSO/10% (v/v) Solutol/85% (v/v) saline.
Following administration, 0.025 mL of blood was collected via venipuncture at the following time points: 0.0833 (IV), 0.25, 0.5, 1, 2, 4, 8, and 24 hours. Blood samples were collected into EDTA-K2 tubes and centrifuged at 4°C and 2000 g for 10 minutes to separate plasma, which was stored at -80°C.
Mouse plasma processing: • 1) 15 µL of plasma was mixed with 200 µL of acetonitrile for protein precipitation. The mixture was vortexed and centrifuged for 15 minutes. • 2) The supernatant after processing was diluted with water and analyzed by LC/MS/MS to determine the concentration of the test compound.
Pharmacokinetic parameters were calculated using WinNonlin 6.1. Specifically, Cmax represents maximum plasma concentration, CL represents clearance, Vss represents volume of distribution at steady state, T1/2 represents terminal elimination half-life, MRTInf represents mean residence time, AUC represents area under the plasma concentration-time curve, and F represents bioavailability. Table 18: Pharmacokinetic parameters of the compounds of the present disclosure in CD-1 mice

[4] = KURAMOCHI xenograft, oral administration

For C[C@H]1CN(c2cc(S(=O)(=O)NC3(C)CC3)cc3c2nc([C@@H]2CCCO2)n3-c2nnc(C(F)F)s2)C[C@H](C)N1 [Compound 077B2], the IC50 (KURAMOCHI cells) was 3 nM, the “tumor growth inhibition (in words)” value [1, 4] was “significantly inhibited tumor growth” and the “TGI (%)” value ([1]; 30 mg/kg, BID × 16 days) was 127%. The “Tumor volume (mm^3)” value ([1]; 30 mg/kg, BID × 16 days) was 61 ± 9 mm^3, the “TGI (%)” value ([1]; 100 mg/kg, QD × 16 days) was 127% and the “Tumor volume (mm^3)” value ([1]; 100 mg/kg, QD × 16 days) was 57 ± 10 mm^3. For the same compound, the IC50 (PARG) was 1.6 nM and the “tolerability in mice (in words)” value [2] was “good tolerability”.
With C[C@H]1CN(c2cc(S(=O)(=O)NC3(C)CC3)cc3c2n2ncnc2n3-c2nnc(C(F)F)s2)C[C@H](C)N1 [Compound 065M] the IC50 (KURAMOCHI cells) was 3 nM, the “tolerability in mice (in words)” value [1, 4] was “good tolerability” and the “tumor growth inhibition (in words)” value [1, 4] was “significantly inhibited tumor growth”. The “TGI (%)” value ([1]; 30 mg/kg, QD × 16 days) was 127%, the “Tumor volume (mm^3)” value ([1]; 30 mg/kg, QD × 16 days) was 62 ± 6 mm^3 and the IC50 (PARG) was 1.4 nM.
C[C@H]1CN(c2cc(S(=O)(=O)NC3(C)CC3)cn3c(-c4nnc(C(F)F)s4)c([C@@H]4CCCO4)nc23)C[C@H](C)N1 [Compound 080B2] showed an AUC [3] of 8.35 µM·h, a Cmax [3] of 1870 nM and an MRT inf [3] of 3.27 h. It also gave a half-life [3] of 2.45 h, an IC50 (KURAMOCHI cells) of 0.6 nM and an IC50 (PARG) of 0.4 nM.
In the case of C=CCn1c(=O)n(-c2nnc(C(F)F)s2)c2cc(S(=O)(=O)NC3(C#N)CC3)cc(N3CCN(C(=O)C(C)(C)N)CC3)c21 [Compound 067P], the IC50 (KURAMOCHI cells) is reported as 74 nM and the IC50 (PARG) is reported as 5.2 nM.
Work on CN(C)C(=O)N1CCN(c2cc(S(=O)(=O)NC3(C#N)CC3)cc3c2ncn3-c2nnc(C(F)F)s2)CC1 [Compound B011] yielded an IC50 (KURAMOCHI cells) of 32 nM and an IC50 (PARG) of 9.9 nM.
Work on CC(C)Oc1nc2c(N3CCN(C(=O)C(C)C)CC3)cc(S(=O)(=O)NC3(C#N)CC3)cc2n1-c1nnc(C(F)F)s1 [Compound 057L] yielded an IC50 (KURAMOCHI cells) of 8 nM and an IC50 (PARG) of 8.6 nM.
Compound CC(C)C(=O)N1CCN(c2cc(S(=O)(=O)NC3(C)CC3)cc3c2n(C)c(=O)n3-c2nnc(C(F)F)s2)CC1 [Compound A003] has an IC50 (KURAMOCHI cells) of 13 nM and an IC50 (PARG) of 5.4 nM.
C=CCn1c(=O)n(-c2nnc(C(F)F)s2)c2cc(S(=O)(=O)NC3(C#N)CC3)cc(N3CCN(c4nccn4C)CC3)c21 [Compound 067J] showed an IC50 (KURAMOCHI cells) of 21 nM and an IC50 (PARG) of 7.8 nM.
Compound C=CCn1c(=O)n(-c2nnc(C(F)F)s2)c2cc(S(=O)(=O)NC3(C#N)CC3)cc(N3CCN(C(=O)[C@H]4CCCO4)CC3)c21 [Compound 076H2] has an IC50 (KURAMOCHI cells) of 40 nM and an IC50 (PARG) of 14 nM.
C=CCn1c(=O)n(-c2nnc(C(F)F)s2)c2cc(S(=O)(=O)NC3(C#N)CC3)cc(N3CCN(C(=O)N4CCC4)CC3)c21 [Compound 067B] gave an IC50 (KURAMOCHI cells) of 15 nM and an IC50 (PARG) of 6.9 nM.
Work on CC(C)C(=O)N1CCC(c2cc(S(=O)(=O)NC3(C#N)CC3)cc3c2ncn3-c2nnc(C(F)F)s2)CC1 [Compound 059D] yielded an IC50 (KURAMOCHI cells) of 40 nM and an IC50 (PARG) of 28.8 nM.
C[C@H]1CN(c2cc(S(=O)(=O)NC3(C)CC3)cn3c(-c4nnc(C(F)F)s4)c(Cl)nc23)C[C@H](C)N1 [Compound 080K] showed an IC50 (KURAMOCHI cells) of 4 nM and an IC50 (PARG) of 1.7 nM.
C[C@H]1CN(c2cc(S(=O)(=O)NC3(C)CC3)cc3c2nc(C2CCCO2)n3-c2nnc(C(F)F)s2)C[C@H](C)N1 (stereo partly shown) [Compound 077B] showed an IC50 (KURAMOCHI cells) of 7 nM and an IC50 (PARG) of 3.4 nM.
C[C@H]1CN(c2cc(S(=O)(=O)NC3(C#N)CC3)cc3c2c2nccnc2n3-c2nnc(C(F)F)s2)C[C@H](C)N1 [Compound 065K] showed an IC50 (KURAMOCHI cells) of 22 nM and an IC50 (PARG) of 6.3 nM.
C=CCn1c(=O)n(-c2nnc(C(F)F)s2)c2cc(S(=O)(=O)NC3(C#N)CC3)cc(N3CCN(C(=O)[C@H](C)CC)CC3)c21 [Compound 067Wl] gave an IC50 (KURAMOCHI cells) of 23 nM and an IC50 (PARG) of 19.7 nM.
Work on CN(C)C(=O)N1CCN(c2cc(S(=O)(=O)NC3(C)COC3)cc3c2n(C)c(=O)n3-c2nnc(C(F)F)s2)CC1 [Compound A036] yielded an IC50 (KURAMOCHI cells) of 12 nM and an IC50 (PARG) of 6.8 nM.
